Consider three molecules from patent US20080008745A1, “Transdermal delivery of naltrexone hydrochloride, naltrexol hydrochloride, and bis(hydroxy-methyl)propionyl-3-0 ester naltrexone using microneedles” (UNIVERSITY OF KENTUCKY RESEARCH FOUNDATION, priority 2006, published 2008).

The nature of series [1]: In vivo pharmacokinetics in hairless guinea pigs, gel with or without microneedles. Also noted: species or system hairless guinea pig. The method, then:
In vivo studies of hairless guinea pigs were performed in order to obtain pharmacokinetic parameters for guinea pigs treated with 26 mg Naltrexol base gel, MN application followed by 26 mg Naltrexol base gel, 285 mg Naltrexol HCl gel and MN application followed by 285 mg Naltrexol HCl. The base was saturated in gel whereas the hydrochloride salt remained soluble in solution.

For series [2] the following is noted: cited from earlier work.
Series [3] can be described thus: In vitro skin diffusion study, flow-through diffusion cell, human skin. In kind it is in vitro ADME. Conditions: for Papp at 48 h: human; for Lag time / NTX Flux: Human skin.
Series [4] is described as follows: Solubility in 3:1 PG:Hanks' buffer. It counts as physicochemical. As to conditions: for Solubility in 3:1 PG:Hanks Buffer: 32° C., 24 h. As for the experimental part: An excess of Naltrexone HCl (˜350 mg) was added to 1 mL of 3:1 PG:Hanks' buffer. The saturated solution was then vortexed for 1 min, sonicated for 15 min, and placed in an incubator at 32° C. for 24 h while shaking on a belly shaker. Just before filtering, a glass syringe and 0.45 μm filter were heated in an incubator to 32° C. The solution was filtered and diluted with ACN for high pressure liquid chromatography (HPLC) analysis.

The conditions of series [5]: human skin, passive diffusion without MN (Paudel et al.); cited from earlier work.
Series [6] can be described thus: In vitro skin diffusion study, flow-through diffusion cell, guinea pig skin. As for the experimental part: Hairless guinea pig skin was harvested from euthanitized animals. Animal studies were approved by the University of Kentucky IACUC. Human skin harvested during abdominoplasty was used for the diffusion studies. Human tissue use was approved by the University of Kentucky Institutional Review Board. Skin sections were obtained by removing the subcutaneous fatty tissue by scalpel dissection and stored at −20° C. A PermeGear flow-through (In-Line, Riegelsville, Pa.) diffusion cell system was used for the skin permeation studies. Skin used for microneedle treatment was placed on a wafer of polydimethylsiloxane polymer, which mimicked the underlying resistance of tissue. The skin was poked 20 times with an array containing 5 MN before mounting the skin in the diffusion cell. Untreated skin samples were simply placed in the diffusion cells. Diffusion cells were kept at 32° C. with a circulating water bath. Data was collected by using skin from a single donor with three cells for untreated formulations and three to four cells for the MN treated formulations. The receiver solution was HEPES-buffered Hanks' balanced salts with gentamicin at pH 7.4, and the flow rate was adjusted to 1.1 mL/h. Each cell was charged with 0.25 mL of the respective drug solution. […] All samples were stored at 4° C. until processed by solid phase extraction.
The cumulative quantity of drug collected in the receiver compartment was plotted as a function of time. The flux value for a given experiment was obtained from the slope of the steady state portion of the cumulative amount of drug permeated, plotted over time. Apparent permeability coefficient values were calculated from Fick's First Law of diffusion: [formula]
Sink conditions were maintained in the receiver solution for the duration of the experiment, so ΔC was approximated by the drug concentration in the donor compartment.
The HPLC analysis was performed as described by Vaddi et al., Pharm. Res. 22 (2005) 758-765. The HPLC system consisted of a Waters 717plus autosampler, a Waters 1525 Binary HPLC pump, and a Waters 2487 Dual λ Absorbance detector with Waters Breeze software. A Brownlee C-18 reversed-phase Spheri-5 μm column (220×4.6 mm) with a C-18 reversed phase 7 μm guard column (15×3.2 mm) was used with the UV detector set at a wavelength of 215 nm. […] The mobile phase for Naltrexol consisted of 90:10 ACN:0.1% TFA adjusted to pH 3.0 with TEA. Samples were run for 10 min at 1 mL/min as described by Paudel et al., J. Pharm. Sci. 94 (2005) 1965-1975). One hundred microliters of sample was injected onto the column for both Naltrexone and Naltrexol. Samples were analyzed within the linear range of the standard curves.
The drugs were extracted from the buffer samples by solid phase extraction (30mg 1 cc Oasis® HLB, Waters Corp., Milford, Mass.) as described by Vaddi et al., Pharm. Res. 22 (2005) 758-765.
Before extracting the aqueous drug samples (5 mL), the cartridge was conditioned with 1 mL of methanol and 1 mL of nanopure water. After sample loading, the cartridge was washed with 1 mL of 5% methanol and the drug was eluted with ACN and analyzed by HPLC. A similar extraction method was employed for Naltrexol, except 2 mL of methanol was used in conditioning and 1 mL of nanopure water was also used to further wash the samples after being loaded onto the cartridge. The Naltrexol was eluted with 2 mL of isopropanol and finally with 1 mL ACN. Naltrexol samples were evaporated under nitrogen in a water bath maintained at 37° C. The samples were then reconstituted with 1 mL of ACN for HPLC analysis. Highly concentrated samples of Naltrexone and Naltrexol were further diluted 10 times in ACN.
The data obtained from the diffusion experiments were plotted as the cumulative amount of drug collected in the receiver compartment as a function of time.

The mark [7] stands for this setting: MN application followed by gel (26 mg base or 285 mg HCl).
The mark [8] stands for this setting: no MN, gel (26 mg Naltrexol base or 285 mg Naltrexol HCl).
[9] abbreviates: No MN GP skin, listed as Naltrexone base.

Each structure is given as a SMILES string. ≈ marks a conversion by molar mass, not a printed value. Counter-ions that a name gives are not always drawn. Like-named read-outs stand apart in the source and are kept apart here.

In general, AUC refers to concentration integrated over time. For orientation: Cmax means the peak of the concentration-time curve. The term Tmax denotes the time at which the peak concentration occurs. For the molecule `Oc1ccc2c3c1O[C@H]1[C@H](O)CC[C@@]4(O)[C@@H](C2)N(CC2CC2)CC[C@]314` [NTXOL Base, 6-β-Naltrexol], in series [1] (setting [7]), the AUC came out at 303.1 ng·h/mL, the Cmax was found to be 8.5 ng/mL, the Css is listed as 5.04 ± 2.57 ng/mL and the Tlag is reported as 0.7 h. The Tmax in series [1] (setting [7]) stood at 0.7 h. Besides, in series [1] (setting [8]), the AUC was found to be 50.5 ± 10.1 ng·h/mL, the Cmax was 1.7 ± 0.5 ng/mL, the Css is 0.95 ± 0.41 ng/mL and the Tlag was found to be 5.2 ± 1.6 h. Further, the Tmax in series [1] (setting [8]) amounted to 40.1 ± 11.7 h. Moreover, the “first pKa” value in series [2] is listed as 7.4.

The solubility is the dissolved amount per volume that the medium holds. `O=C1CC[C@@]2(O)[C@H]3Cc4ccc(O)c5c4[C@@]2(CCN3CC2CC2)[C@H]1O5` [NTX Base, Naltrexone] displayed a Maximum daily dose in series [3] (10 cm^2 patch, passive diffusion without MN, at solubility limit) of 0.4 mg. Besides, the Papp at 48 h in series [3] (pH 7.4, microneedle-treated human skin, read-out: Permeability Kp (estimated) (converted)) is 0.0194 ×10⁻⁶ cm/s. Further, the solubility at 24 h in series [4] (3:1 PG:Hanks' buffer, 32 °C, aqueous with cosolvent or surfactant or cyclodextrin, thermodynamic from solid, Eq. 2, read-out: Solubility S used for theoretical dosing) amounted to 300 mg/mL (≈ 879 mM). Further, in series [4] (listed as Naltrexone base), the “Solubility in 3:1 PG:Hanks Buffer” value is listed as 43.6 mM (≈ 14.9 mg/mL). Further, in series [5], the Permeability is 0.03 ×10⁻⁶ cm/s. The Lag time in series [6] (MN GP skin) amounted to 18.91 ± 4.49 h; in series [6] (MN GP skin, listed as Naltrexone base) it was 18.91 ± 4.49 h; in series [6] (No MN GP skin), 21.22 ± 3.91 h; in series [6] (setting [9]), 21.22 ± 3.91 h. In addition, the “NTX Flux” value was 11.80 ± 5.02 nmol/cm^2/h in series [6] (MN GP skin, 3:1 PG:Hanks' buffer); 11.80±5.02 nmol/cm^2/h in series [6] (MN GP skin, 3:1 PG:Hanks' buffer, listed as Naltrexone base); 9.94 ± 2.75 nmol/cm^2/h in series [6] (No MN GP skin); 9.94±2.75 nmol/cm^2/h in series [6] (setting [9]).

Consider `O=C1CC[C@@]2(O)[C@H]3Cc4ccc(O)c5c4[C@@]2(CCN3CC2CC2)[C@H]1O5` [NTX-HCl, Naltrexone Hydrochloride], for which the “Maximum daily dose (calculated from Eq. 2)” value in series [3] (10 cm^2 patch, MN-treated human skin, highest concentration measured) is on record as 5.0 mg. Besides, the Lag time came out at 12.06 ± 4.32 h in series [3] (MN); 23.66 ± 2.74 h in series [3] (No MN); 2.41 ± 3.85 h in series [6] (MN GP skin, Hydrochloride); 2.41 ± 3.85 h in series [6] (MN GP skin, listed as Naltrexone HCl, Hydrochloride); 22.38 ± 7.68 h in series [6] (No MN GP skin, Hydrochloride); 22.38 ± 7.68 h in series [6] (No MN GP skin, listed as Naltrexone HCl, Hydrochloride). For the same molecule, the “NTX Flux” value turned out to be 18.54 ± 4.38 nmol/cm^2/h in series [3] (MN); 2.22 ± 0.72 nmol/cm^2/h in series [3] (No MN); 27.16 ± 4.57 nmol/cm^2/h in series [6] (MN GP skin, 3:1 PG:Hanks' buffer, Hydrochloride); 27.16±4.57 nmol/cm^2/h in series [6] (MN GP skin, 3:1 PG:Hanks' buffer, listed as Naltrexone HCl, Hydrochloride); 2.71 ± 1.20 nmol/cm^2/h in series [6] (No MN GP skin, Hydrochloride). The “Flux enhancement by MN treatment” value in series [3] (human skin, MN vs untreated, p<0.05) came out at 8 fold; in series [6] (GP skin, MN vs untreated), 10 fold. Also, the Papp at 48 h in series [3] (pH 7.4, Human skin, MN, read-out: Permeability (converted)) was 0.0194 ×10⁻⁶ cm/s; in series [3] (pH 7.4, Human skin, No MN, read-out: Permeability (converted)), 0.00233 ×10⁻⁶ cm/s. In series [3] (microneedle-treated human skin), the “Permeability Kp (estimated)” value was 0.0194 ×10⁻⁶ cm/s. The “Solubility in 3:1 PG:Hanks Buffer” value in series [4] (Hydrochloride) is recorded as 794.4 mM.
